Consider 38 compounds from patent publication US20140004243A1, “SALTY TASTE ENHANCER” (AJINOMOTO CO., INC., priority 2011, published 2014).

The structures appear in SMILES notation.

This assay deals with T1, Human ENaC δ, β and γ subunit (Homo sapiens, UniProt P51168+P51170+P51172).
T1 construct: expressed in transfected cells; host or cells: Xenopus laevis (African clawed frog) oocytes injected with cRNA
T1 sequence (P51172 1-802): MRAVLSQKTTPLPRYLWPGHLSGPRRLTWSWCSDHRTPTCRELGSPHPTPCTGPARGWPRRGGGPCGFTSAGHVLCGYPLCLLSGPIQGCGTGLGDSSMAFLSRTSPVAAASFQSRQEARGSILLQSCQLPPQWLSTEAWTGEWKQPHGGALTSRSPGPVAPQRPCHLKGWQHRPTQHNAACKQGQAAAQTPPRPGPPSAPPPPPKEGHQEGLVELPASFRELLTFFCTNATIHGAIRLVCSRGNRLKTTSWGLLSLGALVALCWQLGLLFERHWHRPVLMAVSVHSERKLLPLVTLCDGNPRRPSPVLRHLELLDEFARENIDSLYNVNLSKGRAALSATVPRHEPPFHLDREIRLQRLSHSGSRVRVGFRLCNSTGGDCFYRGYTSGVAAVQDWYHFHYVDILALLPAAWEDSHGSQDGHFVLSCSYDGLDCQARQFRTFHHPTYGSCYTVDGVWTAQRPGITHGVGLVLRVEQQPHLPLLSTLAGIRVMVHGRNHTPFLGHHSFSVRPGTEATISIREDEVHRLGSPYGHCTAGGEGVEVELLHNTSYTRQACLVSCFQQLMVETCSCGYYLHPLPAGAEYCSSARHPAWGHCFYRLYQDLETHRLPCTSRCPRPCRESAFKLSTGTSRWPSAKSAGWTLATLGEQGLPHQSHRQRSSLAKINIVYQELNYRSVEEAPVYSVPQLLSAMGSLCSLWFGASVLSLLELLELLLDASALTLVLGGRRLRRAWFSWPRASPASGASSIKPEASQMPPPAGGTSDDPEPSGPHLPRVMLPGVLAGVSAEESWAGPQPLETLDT
T1 sequence (P51168 1-640): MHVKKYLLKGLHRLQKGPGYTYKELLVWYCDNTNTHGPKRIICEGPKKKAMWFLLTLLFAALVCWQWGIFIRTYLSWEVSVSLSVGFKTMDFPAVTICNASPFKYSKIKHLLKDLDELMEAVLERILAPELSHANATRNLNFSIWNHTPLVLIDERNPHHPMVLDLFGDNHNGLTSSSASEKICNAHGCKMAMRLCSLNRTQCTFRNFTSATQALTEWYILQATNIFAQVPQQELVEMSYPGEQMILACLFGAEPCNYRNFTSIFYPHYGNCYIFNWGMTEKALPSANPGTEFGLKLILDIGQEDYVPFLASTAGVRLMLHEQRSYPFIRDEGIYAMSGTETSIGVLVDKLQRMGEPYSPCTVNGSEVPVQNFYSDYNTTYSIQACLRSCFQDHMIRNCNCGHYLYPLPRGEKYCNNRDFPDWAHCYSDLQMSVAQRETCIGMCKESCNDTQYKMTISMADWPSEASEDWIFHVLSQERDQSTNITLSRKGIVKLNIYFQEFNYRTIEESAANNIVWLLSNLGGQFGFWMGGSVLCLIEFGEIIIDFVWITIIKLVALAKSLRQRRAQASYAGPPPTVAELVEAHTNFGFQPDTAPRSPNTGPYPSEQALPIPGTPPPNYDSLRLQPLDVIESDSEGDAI
T1 sequence (P51170 1-649): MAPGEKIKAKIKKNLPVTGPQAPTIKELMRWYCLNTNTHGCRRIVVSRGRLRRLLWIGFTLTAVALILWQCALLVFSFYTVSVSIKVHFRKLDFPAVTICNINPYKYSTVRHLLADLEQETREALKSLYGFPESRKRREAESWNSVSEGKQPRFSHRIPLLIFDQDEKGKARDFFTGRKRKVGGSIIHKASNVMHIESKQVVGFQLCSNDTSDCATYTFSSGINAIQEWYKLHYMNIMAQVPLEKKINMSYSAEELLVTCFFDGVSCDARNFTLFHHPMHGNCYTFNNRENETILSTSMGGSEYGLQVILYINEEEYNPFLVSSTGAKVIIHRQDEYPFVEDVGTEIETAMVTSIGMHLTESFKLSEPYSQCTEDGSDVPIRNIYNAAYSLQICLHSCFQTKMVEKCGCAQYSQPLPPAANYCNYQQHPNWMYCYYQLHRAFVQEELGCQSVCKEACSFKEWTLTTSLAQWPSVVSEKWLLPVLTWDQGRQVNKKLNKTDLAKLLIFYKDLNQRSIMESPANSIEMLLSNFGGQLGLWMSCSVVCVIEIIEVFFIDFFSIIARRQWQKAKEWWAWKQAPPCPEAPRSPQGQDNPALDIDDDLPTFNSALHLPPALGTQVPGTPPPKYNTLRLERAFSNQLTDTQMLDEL
Kind of assay: Measurement of ENaC activation potency (MED) in ENaC-expressing oocyte, Two Electrode Voltage Clamp. It is filed as cell-based. Particulars: minimum effective dose at which current started to increase; ENaC-expressing African clawed frog oocyte; smaller MED = higher ENaC activation potency. As for the experimental part: ENaC activation current value, namely, the inward current in ENaC-expressing oocyte was measured as follows.
According to the method described in Motonao Nakamura, Takao Shimizu: Experiment of African clawed frog oocyte, Experimental Medicine Vol. 11, No. 3, 224-232 (1993), oocyte was collected from African clawed frog, […], and the current value was measured by a Two Electrode Voltage Clamp technique. In the present invention, ND96 (96 mM NaCl, 2 mM KCl, 1 mM MgCl2, 5 mM Hepes, 1.8 mM CaCl2, pH 7.6) was used instead of MBS buffer in the above-mentioned document. Injector NANOLITER 2000 manufactured by World Precision Instruments was used for microinjection, OpusXpress 6000A manufactured by Molecular Devices was used for current value measurement by a Two Electrode Voltage Clamp technique, and Clampfit 10.2 software manufactured by Molecular Devices was used for data analysis.
Human ENaC δ, β and γ subunit genes shown by SEQ ID NOs: 1, 2 and 3, respectively, in the Sequence Listing were each cloned into a plasmid vector, and used as a template DNA for cRNA synthesis. cRNA was synthesized using MEGAscript kit manufactured by Ambion and according to the method of the manual of the manufacturer.
A mixture of the same amount of ENaC […] cRNA (0.4 to 0.8 μg/μL), and β and γ subunits cRNA (0.4 μg/μL) was injected into the oocyte of African clawed frog at […] per oocyte, and the oocyte was cultured for 16 hr-72 hr. Thereafter, the oocyte was set on a measuring apparatus OpusXpress 6000A, the electrodes were inserted into the oocyte, the voltage was clamped at a level lower by −30 mV than the resting membrane potential by a Two Electrode Voltage Clamp technique, and the current value was measured.
To measure the ENaC activation potency, oocyte was stimulated with each test compound, and the minimum effective dose (hereinafter to be abbreviated as MED) of the compound at the time point when the electric current started to increase was measured. In this case, whichever smaller value of the minimum effective dose of the stimulation compound that increased the current value by not less than 10%, and the minimum effective concentration of the compound that increased, by not less than 25%, the electric current increase value due to the stimulation by 5 μM capsazepine (CAS NO.: 138977-28-3), as compared to the current value before addition of the compound and without stimulation, was taken as MED. A smaller MED means higher ENaC activation potency.
Each test compound was directly dissolved in ND96, or first dissolved in dimethyl sulfoxide (DMSO) to 100 mM, and then prepared by diluting the solution with ND96 to a concentration used for the evaluation. The concentration of the test compound in ND96 was prepared to various concentrations within the range of 0.1 nM to 300 μm.
ND96 as a perfusion fluid was flown at a rate of 0.5 mL/min through the measuring apparatus OpusXpress 6000A on which ENaC-expressing oocyte was set, the perfusion fluid was temporarily stopped every 3 minutes to add a test compound solution (0.25 mL) dissolved in ND96 at a rate of 0.5 mL/min. In this way, the test compound was contacted with ENaC-expressing oocyte, and whether ENaC is activated by the compound was examined by measuring the current value. After addition of the test compound, feeding of the perfusion fluid was resumed to wash away the compound to be ready for the next addition of the compound.
The compound was added successively from a low concentration to a high concentration to stimulate ENaC-expressing oocyte. The concentrations actually added was, for example, 1 nM, 3 nM, 10 nM, 30 nM, 100 nM, 300 nM; 1 μM, 3 μM, 10 μm, 30 μm, 100 μm, 300 μm; 1.2 μM, 6 μM, 30 μm, 150 μm of one test compound. The compound was added from low concentrations to high concentrations at 3 min intervals. […]
`Oc1ccc(CNC(=S)NCCc2ccc(Cl)cc2)cc1O` [Example 1] yielded an MED of 1 µM.

Consider `Oc1cc2c(cc1O)CN(C(=S)NCCc1ccc(Cl)cc1)CC2` [Example 2], for which the MED was found to be 3 µM.

On to `COc1cc2c(cc1OC)CN(C(=S)NCCc1ccc(Cl)cc1)CC2` [Example 3], for which the MED was determined as 30 µM.

`COc1cc2c(cc1OC)CN(C(=S)NCCc1ccccc1)CC2` [Example 4] had an MED of 30 µM.

Turning to `CN(Cc1ccc(O)c(O)c1)C(=S)NCCc1ccc(Cl)cc1` [Example 5], the MED amounted to 1 µM.

`S=C(NCCc1ccc(Cl)cc1)NCCc1c[nH]c2ccccc12` [Example 6] came in with an MED of 30 µM.

As for `S=C(NCCc1ccccc1)NCCc1c[nH]c2ccccc12` [Example 7], the MED stood at 5 µM.

`S=C(NCCc1ccccc1)NCc1ccccc1` [Example 8]: the MED is 1 µM.

Consider `S=C(NCCc1ccccc1)Nc1ccccc1` [Example 9], for which the MED was found to be 3 µM.

In turn, `C[C@H](NC(=S)NCCc1ccccc1)c1ccccc1` [Example 12] had an MED of 10 µM.

With `S=C(NCCc1ccccc1)NCCc1ccccc1` [Example 13], the MED is 10 µM.

`S=C(NCCc1ccccn1)NCc1ccccc1` [Example 14] displayed an MED of 3 µM.

With `OCCNC(=S)NCc1ccccc1` [Example 15], the MED was found to be 30 µM.

`COc1ccc(CCNC(=S)NCc2ccccc2)cc1` [Example 16] yielded an MED of 3 µM.

The compound `Oc1ccc(CCNC(=S)NCc2ccccc2)cc1` [Example 17] displayed an MED of 3 µM.

`S=C(NCCCc1ccccc1)NCc1ccccc1` [Example 18] gave an MED of 10 µM.

With `S=C(NCCc1ccccc1)NCc1cccc2ccccc12` [Example 20], the MED was determined as 3 µM.

`S=C(NCCc1ccccc1)NCc1ccco1` [Example 21] returned an MED of 1 µM.

Compound `S=C(NCCc1ccccc1)N(Cc1ccccc1)Cc1ccccc1` [Example 22] showed an MED of 30 µM.

Take `O=C(O)c1ccc(CNC(=S)NCCc2ccccc2)cc1` [Example 23]: the MED is 10 µM.

In turn, `C[C@H](NC(=S)N[C@H](C)c1ccccc1)c1ccccc1` [Example 24] returned an MED of 3.3 µM.

In the case of `C[C@@H](NC(=S)N[C@H](C)c1ccccc1)c1ccccc1` [Example 25], the MED turned out to be 10 µM.

For `S=C(NCCc1ccccc1)NCc1ccc2c(c1)OCO2` [Example 26], the MED is 3.3 µM.

Turning to `S=C(NCc1ccccc1)N1CCc2ccccc2C1` [Example 27], the MED is 10 µM.

`COc1ccccc1CNC(=S)NCCc1ccccc1` [Example 28] displayed an MED of 1 to 3 µM.

The compound `COc1ccccc1CCNC(=S)NCc1ccccc1` [Example 29] returned an MED of 3.3 µM.

For `FC(F)(F)c1ccc(CNC(=S)NCCc2ccccc2)cc1` [Example 30], the MED was found to be 30 µM.

Consider `S=C(NCCc1ccccc1)NCc1cccnc1` [Example 31], for which the MED was found to be 1 µM.

On to `S=C(NCCc1ccccc1)NCC12CC3CC(CC(C3)C1)C2` [Example 32], for which the MED was 10 µM.

On to `S=C(NCCc1ccccc1)NCc1nc2ccccc2[nH]1` [Example 33], for which the MED was determined as 3 µM.

Compound `S=C(NCCc1c[nH]c2ccccc12)Nc1ccccc1` [Example 34] showed an MED of 10 µM.

`C[C@@H](NC(=S)N/N=C/c1ccccc1O)c1ccccc1` [Example 35]: the MED was found to be 3 µM.

Regarding `C[C@@H](NC(=S)NN)c1ccccc1` [Example 36], the MED is 30 µM.

As to `COC(=O)c1ccccc1NC(=S)N(C)CCc1ccccc1` [Example 37], the MED was 3 µM.

`CN(CCc1ccccc1)C(=S)Nc1ccccc1C(=O)O` [Example 38]: the MED is 0.1 µM.

For the compound `O=C(O)c1ccccc1NC(=S)Nc1ccccc1` [Example 39], the MED came to 1 µM.

Compound `Oc1ccc(CNC(=S)NCCc2ccccc2)cc1O` [Example 40, 1-(3,4-dihydroxybenzyl)-3-(2-phenylethyl)thiourea] displayed an MED of 1 µM.

In turn, `Oc1cc2c(cc1O)CN(C(=S)NCCc1ccccc1)CC2` [Example 41, N-(2-phenylethyl)-3,4-dihydro-6,7-dihydroxyisoquinoline-2(1H)-carbothioamide] came in with an MED of 3 µM.
